Test results from US4992437A, “Thienodiazepine compounds and their pharmaceutical use” (Yoshitomi Pharmaceutical Industries, Ltd., priority 1987, dated 1991).
Read-outs that look alike come from different tables or passages of the source.

Experiments:
CCK-8 = test: Effects on gastric excreting capability (Gastric emptying test), CCK-8 challenge; format: in vivo, male ddY mice
Experimental: At 5 minutes' lapse thereafter, 0.1 ml of a 1.5% aqueous solution of methyl cellulose containing 0.05% phenolred (Sigma) was orally administered. After 15 minutes, the stomach was extracted and the gastric contents were mixed with a 10% aqueous solution of trichloroacetic acid. After the removal of the proteins, the residue was centrifuged at 3000 rpm for 10 minutes. To the supernatant was added a 1N solution of sodium hydroxide and the mixture was again centrifuged. Thereafter, OD560 value of the supernatant was measured by the spectrophotometer (Hitachi 200-10 type) to estimate the minimum effective dose (MED).

CCK receptor (brain) = molecular target: T1, CCK receptor (brain); test: CCK receptor-binding, brain (125I-CCK-8)
T1 construct: Brain; from tissue

CCK receptor (pancreas) = molecular target: T2, CCK receptor (pancreas) (Canis lupus familiaris, UniProt Q5D0K2); test: CCK receptor-binding, pancreas (125I-CCK-8); parameters: species or system male mongrel adult dog
T2 construct: from tissue; host or cells: dog pancreas membranes (whole pancreas, homogenized and centrifuged)
T2 sequence (Q5D0K2 1-428): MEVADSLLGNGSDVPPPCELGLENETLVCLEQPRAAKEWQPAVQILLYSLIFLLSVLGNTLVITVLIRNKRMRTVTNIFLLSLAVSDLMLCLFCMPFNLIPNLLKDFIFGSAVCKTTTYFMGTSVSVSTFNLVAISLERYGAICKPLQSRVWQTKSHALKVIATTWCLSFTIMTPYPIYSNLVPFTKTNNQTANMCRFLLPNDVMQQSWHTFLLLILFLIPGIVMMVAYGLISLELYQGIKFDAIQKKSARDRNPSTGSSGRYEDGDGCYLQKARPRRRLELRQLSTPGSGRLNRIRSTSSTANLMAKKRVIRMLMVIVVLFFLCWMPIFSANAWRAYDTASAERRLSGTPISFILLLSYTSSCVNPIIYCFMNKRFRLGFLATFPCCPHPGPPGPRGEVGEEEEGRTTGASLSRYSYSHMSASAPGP
Experimental: The entire pancreas of a male mongrel adult dog was extracted and the fat tissues thereof were removed. The residual portion was homogenized in 50 mM tris hydrochloride (pH 7.5) (Blinkman·Polytron PT20). After the filtration with nylon cloth (120 mesh) followed by centrifugation (50,000×g, for 12 minutes), the obtained sediment was homogenized in a tris buffer solution in the same manner as mentioned above and the homogenate was centrifuged. The obtained sediment was suspended in a buffer solution for binding assay (5 mM magnesium chloride, chloride, 5 mM dithiothreitol, 2 mg/ml bovine serum albumin, 0.1 mg/ml bacitracin, and 50 mM tris hydrochloride, pH 7.2), containing 0.14 mg/ml trypsin-inhibitor (soy bean), and the suspension was used as the receptor source.

Acute toxicity test = format: in vivo; settings: oral; 6 male mice; observed for consecutive 5 days
From the text: The acute toxicity of the compounds of the present invention was studied with the use of 6 male mice.

[1] = pancreas membranes of dog, 125I-CCK-8, 20° C., 30 minutes, read-out: CCK binding, IC50 Pancreas

T1 sequence (P32239 whole entry): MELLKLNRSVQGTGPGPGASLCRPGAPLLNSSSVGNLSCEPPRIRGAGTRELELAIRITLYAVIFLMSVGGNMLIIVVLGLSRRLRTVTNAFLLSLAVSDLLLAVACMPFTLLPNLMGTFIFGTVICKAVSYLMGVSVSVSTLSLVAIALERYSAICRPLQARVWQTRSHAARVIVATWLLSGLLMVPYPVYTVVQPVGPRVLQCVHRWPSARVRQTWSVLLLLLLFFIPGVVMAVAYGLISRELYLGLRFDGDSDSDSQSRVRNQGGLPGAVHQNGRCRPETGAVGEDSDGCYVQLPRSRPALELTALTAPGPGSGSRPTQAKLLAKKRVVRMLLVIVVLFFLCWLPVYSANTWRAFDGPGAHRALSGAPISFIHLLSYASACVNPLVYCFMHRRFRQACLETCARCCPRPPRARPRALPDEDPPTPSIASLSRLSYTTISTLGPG

Q: Which minimal effective dose at 0.03 mg/kg (CCK-8; Mus musculus, po, 25 min; read-out: Gastric Emptying MED (minimum effective dose)) does the source give for CCc1cc2c(s1)-n1c(C)nnc1C(NC(=O)c1cc3ccccc3[nH]1)N=C2c1ccccc1Cl (stereo not shown) [Compound A, 4-(2-Chlorophenyl)-2-ethyl-6-(2-indolecarboxamido)-9-methyl-6H-thieno[3,2-f][1,2,4]triazolo[4,3-a][1,4]diazepine] here?
A: 0.3 to 1 mg/kg

Q: What about the IC50 (CCK receptor (brain)) of the same molecule?
A: 1.8 nM

Q: What about the IC50 (CCK receptor (pancreas)) of the same molecule?
A: 0.6 nM

Q: What about the acute toxicity (Acute toxicity test) of the same molecule?
A: low toxicity

Q: Which minimal effective dose at 0.03 mg/kg (CCK-8; Mus musculus, po, 25 min, read-out: Gastric Emptying MED (minimum effective dose)) does the source give for CN1C(=O)C(NC(=O)c2cc3ccccc3[nH]2)N=C(c2ccccc2)c2ccccc21 [Example L-364718, N-(2,3-Dihydro-1-methyl-2-oxo-5-phenyl-1H-1,4-benzodiazepin-3-yl)-1H-indole-2-carboxamide, reference compound] here?
A: 0.1 to 0.3 mg/kg

Q: With CCK-4 as the molecule, how does the IC50 (CCK receptor (pancreas); [1]) read?
A: 800 nM

Q: With “CCK-8: CCK-8 which consists of the 8 amino acids at the C terminus of CCK” as the molecule, how does the IC50 (CCK receptor (pancreas); [1]) read?
A: 0.6 nM
